One may read the Ki as a measure of affinity in units of concentration, obtained from inhibition or displacement.

Like-named read-outs stand apart in the source and are kept apart here. Non-standard residues stand in square brackets, D forms with d. Residues, ends and D or L forms follow the SMILES beside them. *: point of attachment. dPhe(4-Br) = N[C@H](Cc1ccc(Br)cc1)C(=O)O; Agmatine = N=C(N)NCCCCN*

Consider 3 compounds from patent EP0818744A2, “Process for selecting candidate drug compounds” (Proteus Molecular Design Limited, priority 1996, dated 1998).

The test addresses thrombin (Homo sapiens, UniProt P00734). Nature of the test: colorimetric microplate assay with synthetic peptide substrates, inhibition of thrombin. In kind it is biochemical. How it is done: The compounds were tested for inhibition of thrombin and trypsin using a colorimetric microplate assay with synthetic peptide substrates as described by Tapparelli, J. Biol. Chem. 268:4734 (1993). […]

Setting [1] is: values not in parentheses (purified compounds, error less than 10%), '-' = not active, read-out: Ki Thrombin.

Turning to `NC(N)=NCCCCNC(=O)[C@@H]1CCCN1C(=O)[C@H](N)Cc1ccccc1` [Compound A2B1] (H-[dF]-Pro-Agmatine), under setting [1], the Ki amounted to 120 nM.

With `NCCCCCNC(=O)[C@@H]1CCCN1C(=O)[C@H](N)Cc1ccccc1` [Compound A2B9], the inhibition constant (Ki) under setting [1] is 690 nM.

Take `N=C(N)NCCCCNC(=O)[C@@H]1CCCN1C(=O)[C@H](N)Cc1ccc(Br)cc1` [Compound A3B1] (H-[dPhe(4-Br)]-Pro-Agmatine): the Ki (most active compound, read-out: Ki) amounted to 41 nM.
